In patent US9938271B2, “Inhibitors of human immunodeficiency virus replication” (VIIV HEALTHCARE UK (NO. 5) LIMITED, priority 2014, dated 2018):

Each compound was assayed on NL-RLuc virus (recombinant HIV NL4-3 with Renilla Luciferase gene) in MT-2 cells (assay: Inhibition of HIV replication (NL-RLuc luciferase reporter virus in MT-2 cells)). Settings: MT2, 120 h, MT-2 cells infected with NL-RLuc virus, 5 days of incubation, luciferase readout, 10% FBS.
Type: cell-based
From the text: Inhibition of HIV Replication:
A recombinant NL-RLuc proviral clone was constructed in which a section of the nef gene from NL4-3 was replaced with the Renilla Luciferase gene. This virus is fully infectious and can undergo multiple cycles of replication in cell culture. In addition, the luciferous reporter provides a simple and easy method for quantitating the extent of virus growth and consequently, the antiviral activity of test compounds. The plasmid pNLRLuc contains the proviral NL-Rluc DNA cloned into pUC 18 at the PvuII site. The NL-RLuc virus was prepared by transfection of 293T cells with the plasmid pNLRLuc. Transfections were performed using the LipofectAMINE PLUS kit from Invitrogen (Carlsbad, Calif.) according to the manufacturer and the virus generated was titered in MT-2 cells. For susceptibility analyses, the titrated virus was used to infect MT-2 cells in the presence of compound, and after 5 days of incubation, cells were processed and quantitated for virus growth by the amount of expressed luciferase. Assay media was RPMI 1640 supplemented with 10% heat inactivated fetal bovine serum (FBS), 100 units/ml penicillin G/100 units/ml streptomycin, 10 mM HEPES buffer pH 7.55 and 2 mM L-glutamine. The results from at least 2 experiments were used to calculate the EC50 values. Luciferase was quantitated using the Dual Luciferase kit from Promega (Madison, Wis.). Susceptibility of viruses to compounds was determined by incubation in the presence of serial dilutions of the compound. The 50% effective concentration (EC50) was calculated by using the exponential form of the median effect equation where (Fa)=1/[1+(ED50/drug conc.)^m] (Johnson V A, Byington R T. Infectivity Assay. In Techniques in HIV Research. ed. Aldovini A, Walker B D. 71-76. New York: Stockton Press. 1990). Activity equal to A refers to a compound having an EC50≤100 nM, while B and C denote compounds having an EC50 between 100 nM and 1 uM (B) or >1 uM (C).

| SMILES | EC50 |
| --- | --- |
| Cc1cn2cc(-c3cccc(-c4ccccc4F)c3)nc2c(-c2cc(F)c3c(c2C)CCCO3)c1[C@H](OC(C)(C)C)C(=O)O [Example 3, (2S)-2-(tert-Butoxy)-2-(8-(8-fluoro-5-methylchroman-6-yl)-2-(2′-fluoro-[1,1′-biphenyl]-3-yl)-6-methylimidazo[1,2-a]pyridin-7-yl)acetic acid] | 0.011 µM |
| Cc1cn2cc(-c3cccc(-c4ccccc4F)c3)nc2c(-c2ccccc2F)c1[C@H](OC(C)(C)C)C(=O)O [Example 4, (2S)-2-(tert-Butoxy)-2-(2-(2′-fluoro-[1,1′-biphenyl]-3-yl)-8-(2-fluorophenyl)-6-methylimidazo[1,2-a]pyridin-7-yl)acetic acid] | 0.265 µM |
| Cc1cn2cc(-c3cccc(-c4ccccc4F)c3)nc2c(-c2ccc3c(c2)CCCO3)c1[C@H](OC(C)(C)C)C(=O)O [Example 7, (S)-2-(tert-Butoxy)-2-(8-(chroman-6-yl)-2-(2′-fluoro[1,1′-biphenyl]-3-yl)-6-methylimidazo[1,2-a]pyridin-7-yl)acetic acid] | 0.019 µM |
| Cc1cn2cc(-c3cccc(-c4ccc(F)c(F)c4F)c3)nc2c(-c2ccc3c(c2)CCCO3)c1[C@H](OC(C)(C)C)C(=O)O [Example 8, (S)-2-(tert-Butoxy)-2-(8-(chroman-6-yl)-6-methyl-2-(2′,3′,4′-trifluoro-[1,1′-biphenyl]-3-yl)imidazo[1,2-a]pyridin-7-yl)acetic acid] | 0.01 µM |
| Cc1cn2cc3nc2c(c1[C@H](OC(C)(C)C)C(=O)O)N1CCC(C)(CC1)OCCCC[C@H](C)Oc1cc(F)ccc1-c1cccc-3c1 [Example 9, (2S)-2-(tert-Butoxy)-2-[(22S)-18-fluoro-4,22,28-trimethyl-21,27-dioxa-1,6,8-triazahexacyclo[26.2.2.1^6,9.1^10,14.0^2,7.0^15,20]tetratriaconta-2,4,7,9(34),10(33),11,13,15,17,19-decaen-3-yl]acetic acid] | 0.036 µM |
| Cc1cn2c(C(C)(C)C)c3nc2c(c1[C@H](OC(C)(C)C)C(=O)O)N1CCC(C)(CC1)OCCCC[C@H](C)Oc1cc(F)ccc1-c1cccc-3c1 [Example 10, (2S)-2-(tert-Butoxy)-2-[(22S)-34-tert-butyl-18-fluoro-4,22,28-trimethyl-21,27-dioxa-1,6,8-triazahexacyclo[26.2.2.1^6,9.1^10,14.0^2,7.0^15,20]tetratriaconta-2,4,7,9 (34),10(33),11,13,15,17,19-decaen-3-yl]acetic acid] | 0.148 µM |

Same assay, conditions: {}

| SMILES | EC50 |
| --- | --- |
| Cc1cn2cc(-c3cccc(-c4ccc(F)cc4)c3)nc2c(-c2cc(F)c3c(c2C)CCCO3)c1[C@H](OC(C)(C)C)C(=O)O (single isomer, unassigned) [Example 1] | 0.016 µM |
| Cc1cn2cc(-c3cccc(-c4ccc(F)cc4)c3)nc2c(-c2cc(F)c3c(c2C)CCCO3)c1[C@H](OC(C)(C)C)C(=O)O (single isomer, unassigned) [Example 2] | 0.187 µM |
| Cc1ccccc1-c1cccc(-c2cn3cc(C)c([C@H](OC(C)(C)C)C(=O)O)c(-c4cc(F)c5c(c4C)CCCO5)c3n2)c1 (single isomer, unassigned) [Example 5] | 0.034 µM |
| Cc1ccccc1-c1cccc(-c2cn3cc(C)c([C@H](OC(C)(C)C)C(=O)O)c(-c4cc(F)c5c(c4C)CCCO5)c3n2)c1 (single isomer, unassigned) [Example 6] | 0.56 µM |
